Results as given in ChEMBL document CHEMBL4359871, “Novel electrophilic amides amenable by the Ugi reaction perturb thioredoxin system via thioredoxin reductase 1 (TrxR1) inhibition: Identification of DVD-445 as a new lead compound for anticancer therapy” (Eur J Med Chem, 2019).
Active and inactive are the calls of the source. The rule behind the calls is not given here.

What was measured:
[1] = target: T1, Thioredoxin reductase 1, cytoplasmic (Homo sapiens, UniProt Q16881); test: Inhibition of TrxR in human SH-SY5Y cells using DTNB as substrate preincubated for 15 mins followed by substrate addition and measured for 20 mins by Ellman's method; format: cell-based
T1 sequence (Q16881 whole entry): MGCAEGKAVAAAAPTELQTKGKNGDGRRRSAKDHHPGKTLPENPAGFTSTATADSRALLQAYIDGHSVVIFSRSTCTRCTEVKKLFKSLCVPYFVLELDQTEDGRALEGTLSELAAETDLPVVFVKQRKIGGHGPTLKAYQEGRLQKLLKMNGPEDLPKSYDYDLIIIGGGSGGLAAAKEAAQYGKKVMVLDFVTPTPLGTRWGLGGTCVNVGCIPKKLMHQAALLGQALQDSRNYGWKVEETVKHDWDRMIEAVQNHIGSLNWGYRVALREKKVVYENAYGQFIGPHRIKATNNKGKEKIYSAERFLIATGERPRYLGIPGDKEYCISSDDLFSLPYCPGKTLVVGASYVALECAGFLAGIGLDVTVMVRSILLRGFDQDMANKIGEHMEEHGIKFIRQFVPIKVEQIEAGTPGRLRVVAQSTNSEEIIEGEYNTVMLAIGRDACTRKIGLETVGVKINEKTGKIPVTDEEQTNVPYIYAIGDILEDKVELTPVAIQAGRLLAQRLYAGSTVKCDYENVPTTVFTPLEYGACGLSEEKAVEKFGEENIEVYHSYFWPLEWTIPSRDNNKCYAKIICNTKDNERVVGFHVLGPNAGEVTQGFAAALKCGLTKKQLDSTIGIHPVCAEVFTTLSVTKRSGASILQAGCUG

[2] = target: T2, Thioredoxin reductase 1, cytoplasmic (Rattus norvegicus, UniProt O89049); test: Inhibition of rat TrxR1 using DTNB as substrate preincubated for 15 mins followed by substrate addition and measured for 20 mins by Ellman's method
T2 sequence (O89049 whole entry): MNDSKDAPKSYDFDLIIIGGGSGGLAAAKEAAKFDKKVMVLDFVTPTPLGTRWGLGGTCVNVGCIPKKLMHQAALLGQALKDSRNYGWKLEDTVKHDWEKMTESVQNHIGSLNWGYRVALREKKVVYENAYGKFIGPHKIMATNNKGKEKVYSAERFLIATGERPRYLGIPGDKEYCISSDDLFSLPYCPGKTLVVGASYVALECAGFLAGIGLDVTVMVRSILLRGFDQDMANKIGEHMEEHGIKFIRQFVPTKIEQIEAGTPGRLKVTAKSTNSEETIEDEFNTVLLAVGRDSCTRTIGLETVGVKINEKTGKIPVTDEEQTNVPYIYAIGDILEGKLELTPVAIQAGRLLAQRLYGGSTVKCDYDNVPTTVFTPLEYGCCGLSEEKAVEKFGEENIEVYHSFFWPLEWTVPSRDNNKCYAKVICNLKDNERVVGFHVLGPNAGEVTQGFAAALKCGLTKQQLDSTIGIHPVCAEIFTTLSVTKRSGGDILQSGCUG

[3] = target: T1, Thioredoxin reductase 1, cytoplasmic; test: Inhibition of TrxR1 (unknown origin) using DTNB as substrate preincubated for 30 mins in presence of insulin followed by substrate addition by colorimetry
[4] = target: T3, Thioredoxin reductase 1, cytoplasmic (Rattus norvegicus) (UniProt O89049); test: […] inhibition of rat TrxR1 using DTNB as substrate preincubated for 15 mins in presence of NADPH followed by substrate addition and measured for 20 mins by Ellman's method
T3 sequence (whole entry): T2 sequence (O89049 whole entry)

SH-SY5Y [5] = test: Cytotoxicity against human SH-SY5Y cells assessed as reduction in cell viability incubated for 72 hrs by MTT assay; format: functional, cell-based
U-87 MG [6] = test: Cytotoxicity against human U87 cells assessed as reduction in cell viability incubated for 72 hrs by MTT assay; format: functional, cell-based, U-87MG ATCC
PBMC = test: Cytotoxicity against human PBMC assessed as reduction in cell viability incubated for 72 hrs by MTT assay; format: cell-based
HaCaT [7] = test: Cytotoxicity against human HaCaT assessed as reduction in cell viability incubated for 72 hrs by MTT assay; format: cell-based
SH-SY5Y [8] = test: Induction of ROS generation in human SH-SY5Y cells incubated for 24 hrs by DHE staining based flow cytometry; format: functional, cell-based
U-87 MG [9] = test: Induction of ROS generation in human U87 cells incubated for 24 hrs by DHE staining based flow cytometry; format: functional, cell-based; conditions: U-87MG ATCC
HaCaT [10] = test: Induction of ROS generation in human HaCaT cells incubated for 24 hrs by DHE staining based flow cytometry; format: cell-based
SH-SY5Y [11] = test: Induction of RNS generation in human SH-SY5Y cells incubated for 24 hrs by DHR staining based flow cytometry; format: functional
U-87 MG [12] = test: Induction of RNS generation in human U87 cells incubated for 24 hrs by DHR staining based flow cytometry; format: functional, cell-based; conditions: U-87MG ATCC
HaCaT [13] = test: Induction of RNS generation in human HaCaT cells incubated for 24 hrs by DHR staining based flow cytometry; format: cell-based
SH-SY5Y [14] = test: Induction of apoptosis in human SH-SY5Y cells assessed as viable cells incubated for 48 hrs by annexin V FITC and propidium iodide staining based flow cytometry (reference value: 92.44 %); format: functional
SH-SY5Y [15] = test: Induction of apoptosis in human SH-SY5Y cells assessed as early apoptotic cells incubated for 48 hrs by annexin V FITC and propidium iodide staining based flow cytometry (reference value: 0.44 %); format: functional
SH-SY5Y [16] = test: Induction of apoptosis in human SH-SY5Y cells assessed as late apoptotic cells incubated for 48 hrs by annexin V FITC and propidium iodide staining based flow cytometry (reference value: 1.37 %); format: functional
SH-SY5Y [17] = test: Induction of apoptosis in human SH-SY5Y cells assessed as necrotic cells incubated for 48 hrs by annexin V FITC and propidium iodide staining based flow cytometry (reference value: 5.75 %); format: functional
[18] = Induction of apoptosis in human HaCaT cells assessed as viable cells incubated for 48 hrs by annexin V FITC and propidium iodide staining based flow cytometry (reference value: 95.78 %); format: cell-based; conditions: read-out: Activity
HaCaT [19] = test: Induction of apoptosis in human HaCaT cells assessed as early apoptotic cells incubated for 48 hrs by annexin V FITC and propidium iodide staining based flow cytometry (reference value: 0.02 %); format: cell-based
HaCaT [20] = test: Induction of apoptosis in human HaCaT cells assessed as late apoptotic cells incubated for 48 hrs by annexin V FITC and propidium iodide staining based flow cytometry (reference value: 0.46 %); format: cell-based
HaCaT [21] = test: Induction of apoptosis in human HaCaT cells assessed as necrotic cells incubated for 48 hrs by annexin V FITC and propidium iodide staining based flow cytometry (reference value: 2.74 %); format: cell-based

SMILES	IC50 [1]	IC50 [2]	IC50 [3]	inhibition [4]	IC50 (SH-SY5Y [5])	IC50 (U-87 MG [6])	IC50 (PBMC)	IC50 (HaCaT [7])	Activity (SH-SY5Y [8])	Activity (U-87 MG [9])	Activity (HaCaT [10])	Activity (SH-SY5Y [11])	Activity (U-87 MG [12])	Activity (HaCaT [13])	Activity (SH-SY5Y [14])	Activity (SH-SY5Y [15])	Activity (SH-SY5Y [16])	Activity (SH-SY5Y [17])	viability at 48 h [18]	Activity (HaCaT [19])	other results
COc1ccccc1C(C(=O)NC1CCCCC1)N(C(=O)/C=C/C(=O)c1ccc(C)cc1)C1CCCCC1 (stereo not given)	51200 nM	3120 nM	5280 nM	Active	1770 nM	1410 nM	1620 nM	1560 nM	inactive	inactive	Non-Toxic	>=30%	inactive	Non-Toxic	57.22%	0.25%	0.92%	41.62%	89.1%	0.07%	Activity (HaCaT [20]): 1.15%; Activity (HaCaT [21]): 9.65%
Cc1ccc(C(=O)/C=C/C(=O)N(C2CC2)C(C(=O)NC2CCCCC2)c2ccc(F)cc2)cc1 (stereo not given)	29300 nM																				
CN(CCOC(=O)/C=C/C(=O)c1ccc(F)cc1)C(C(=O)NC(C)(C)C)c1ccc(F)cc1 (stereo not given)	7260 nM	600 nM	960 nM	Active	11000 nM	9700 nM	55700 nM	8300 nM	inactive	inactive	Non-Toxic	inactive	inactive	Non-Toxic	75.74%	2.57%	6.73%	14.96%	93.9%	0.03%	Activity (HaCaT [20]): 0.83%; Activity (HaCaT [21]): 5.21%
CC(C)(C)NC(=O)C(c1ccc(F)cc1)N(C(=O)/C=C/C(=O)c1ccc(F)cc1)C1CC1 (stereo not given)	17400 nM	930 nM	820 nM	Active	560 nM	800 nM	5600 nM	1060 nM	inactive	inactive	Non-Toxic	inactive	inactive	Non-Toxic	86.76%	0.6%	1.54%	11.11%	94%	0.07%	Activity (HaCaT [20]): 0.77%; Activity (HaCaT [21]): 5.21%
CCCN(C(=O)/C=C/C(=O)c1ccc(C)cc1)C(C(=O)NC1CCCCC1)c1ccc(C)cc1 (stereo not given)	81600 nM																				
COc1ccc(C(C(=O)NC(C)(C)C)N(C(=O)/C=C/C(=O)c2ccc(C)cc2)C(C)C)cc1 (stereo not given)	16000 nM	1740 nM	760 nM	Active	900 nM	460 nM	2100 nM	830 nM	inactive	inactive	Non-Toxic	>=30%	inactive	Non-Toxic	71.35%	0.71%	2.14%	25.8%	78.8%	0.22%	Activity (HaCaT [20]): 2.92%; Activity (HaCaT [21]): 18.16%
Cc1ccc(C(=O)/C=C/C(=O)N(CC(C)C)C(C(=O)NC(C)(C)C)C(C)(C)C)cc1 (stereo not given)	> 200000 nM																				
COc1cc(C(C(=O)NC(C)(C)C)N(CCC(C)C)C(=O)/C=C/C(=O)c2ccc(F)cc2)cc(OC)c1OC (stereo not given)	8580 nM	1250 nM	2510 nM	Active	2960 nM	2920 nM	7290 nM	1050 nM	inactive	inactive	Non-Toxic	>=30%	inactive	Non-Toxic	37.57%	0.07%	0.39%	61.97%	65.3%	0.14%	Activity (HaCaT [20]): 5.06%; Activity (HaCaT [21]): 29.45%
Cc1ccc(C(=O)C[C@H]2C(=O)N(C3CCCCC3)[C@H](c3cccnc3)C(=O)N2Cc2ccccc2)cc1 (racemic)	> 200000 nM																				
COc1ccc(C(C(=O)NC(C)(C)C)N(C(=O)/C=C/C(=O)c2ccc(C)cc2)C2CC2)cc1OC (stereo not given)	76600 nM																				
COc1ccc(C(C(=O)NC2CCCCC2)N(CC(C)C)C(=O)/C=C/C(=O)c2ccc(C)cc2)cc1 (stereo not given)	> 200000 nM																				
COc1cc(/C=C/C(=O)N2CCC=CC2=O)cc(OC)c1OC [PIPLARTINE]					5940 nM	7180 nM		3030 nM													
CCCCN(C(=O)/C=C/C(=O)c1ccc(F)cc1)C(C(=O)NCc1ccccc1)C(C)(C)C (stereo not given)	30500 nM																				
